Assay results published in patent US12319664B2, “Herbicidally active 3-phenylisoxazoline-5-carboxamides of cyclopentenylcarboxylic acid derivatives” (Bayer Aktiengesellschaft, priority 2018, dated 2025).

What was measured:
STEME = assay: Post-emergence herbicidal action against STEME; format: in vivo, Stellaria media; conditions: application rate 80 g/ha, rated visually about 3 weeks after treatment
Procedure, shortened: (§1)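 Greenhouse post-emergence test: compound sprayed onto green plant parts at one-leaf stage as WP or EC preparation with 0.5% additive, water rate 600 l/ha. Percent activity scored by eye after roughly 3 weeks, where 0% matches controls and 100% means death.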

AVEFA = assay: Post-emergence herbicidal action against AVEFA; format: in vivo, Avena fatua; conditions: application rate 80 g/ha, rated visually after about 3 weeks
Procedure, shortened: as §1

MATIN = assay: Post-emergence herbicidal action against MATIN; format: in vivo, Matricaria inodora; conditions: application rate 80 g/ha, rated visually about 3 weeks after treatment
Method: [table] 2. Post-emergence herbicidal action against harmful plants and crop plant compatibility Seeds of monocotyledonous and dicotyledonous weeds and crop plants are placed in sandy loam in plastic or wood-fibre pots, covered with soil and cultivated in a greenhouse under controlled growth conditions. 2 to 3 weeks after sowing, the test plants are treated at the one-leaf stage. The compounds of the invention, formulated in the form of wettable powders (WP) or as emulsion concentrates (EC), are then sprayed onto the green parts of the plants as aqueous suspension or emulsion with addition of 0.5% additive at a water application rate of 600 l/ha (converted). After the test plants have been kept in the greenhouse under optimum growth conditions for about 3 weeks, the activity of the preparations is rated visually in comparison to untreated controls. For example, 100% activity=the plants have died, 0% activity=like control plants.

ALOMY = assay: Post-emergence herbicidal action against ALOMY; format: in vivo, Alopecurus myosuroides; conditions: application rate 80 g/ha, rated visually after about 3 weeks
Procedure, shortened: as §1

LOLRI = assay: Post-emergence herbicidal action against LOLRI; format: in vivo, Lolium rigidum; conditions: application rate 80 g/ha, rated visually after about 3 weeks
Procedure, shortened: as §1

HORMU = assay: Post-emergence herbicidal action against HORMU; format: in vivo, Hordeum murinum; conditions: application rate 80 g/ha
Procedure, shortened: as §1

VERPE = assay: Post-emergence herbicidal action against VERPE; format: in vivo, Veronica persica; conditions: application rate 80 g/ha
Procedure, shortened: as §1

ECHCG = assay: Post-emergence herbicidal action against ECHCG; format: in vivo, Echinochloa crus-galli; conditions: application rate 80 g/ha, rated visually after about 3 weeks
Procedure, shortened: as §1

ABUTH = assay: Post-emergence herbicidal action against ABUTH; format: in vivo, Abutilon theophrasti; conditions: application rate 80 g/ha, rated visually about 3 weeks after treatment
Procedure, shortened: as §1

SETVI = assay: Post-emergence herbicidal action against SETVI; format: in vivo, Setaria viridis; conditions: application rate 80 g/ha, rated visually after about 3 weeks
Procedure, shortened: as §1

AMARE = assay: Post-emergence herbicidal action against AMARE; format: in vivo, Amaranthus retroflexus; conditions: application rate 80 g/ha, rated visually about 3 weeks after treatment
Procedure, shortened: as §1

PHBPU = assay: Post-emergence herbicidal action against PHBPU; format: in vivo, Pharbitis purpurea; conditions: application rate 80 g/ha, rated visually about 3 weeks after treatment
Procedure, shortened: as §1

POLCO = assay: Post-emergence herbicidal action against POLCO; format: in vivo, Polygonum convolvulus; conditions: application rate 80 g/ha, rated visually about 3 weeks after treatment
Procedure, shortened: as §1

VIOTR = assay: Post-emergence herbicidal action against VIOTR; format: in vivo, Viola tricolor; conditions: application rate 80 g/ha, rated visually about 3 weeks after treatment
Procedure, shortened: as §1

| Structure (SMILES) | Herbicidal action against [%] STEME (STEME) [%] | Herbicidal action against [%] AVEFA (AVEFA) [%] | Herbicidal action against [%] MATIN (MATIN) [%] | Herbicidal action against [%] ALOMY (ALOMY) [%] | Herbicidal action against [%] LOLRI (LOLRI) [%] | Herbicidal action against [%] HORMU (HORMU) [%] | Herbicidal action against [%] VERPE (VERPE) [%] | Herbicidal action against [%] ECHCG (ECHCG) [%] | Herbicidal action against [%] ABUTH (ABUTH) [%] | Herbicidal action against [%] SETVI (SETVI) [%] | Herbicidal action against [%] AMARE (AMARE) [%] | Herbicidal action against [%] PHBPU (PHBPU) [%] | Herbicidal action against [%] POLCO (POLCO) [%] | Herbicidal action against [%] VIOTR (VIOTR) [%] |
| --- | --- | --- | --- | --- | --- | --- | --- | --- | --- | --- | --- | --- | --- | --- |
| O=C(OCCCl)C1C=CC(NC(=O)C2(C(F)(F)F)CC(c3cc(Cl)cc(Cl)c3)=NO2)C1 (mixture of isomers) [Example I-040] | 90 | 90 | 80 | 90 | 90 | 90 | 80 | 90 | 80 | – | – | – | – | – |
| O=C(OCC(F)(F)F)C1C=CC(NC(=O)C2(C(F)(F)F)CC(c3cc(Cl)cc(Cl)c3)=NO2)C1 (mixture of isomers) [Example I-041] | 80 | 90 | 80 | – | 80 | 90 | – | 80 | 80 | – | – | – | – | – |
| CCOC(=O)C1C=CC(NC(=O)C2(C(F)(F)F)CC(c3cccc(Cl)c3)=NO2)C1 (mixture of isomers) [Example I-042] | 90 | 100 | 80 | 100 | 100 | 90 | 80 | 90 | 80 | 80 | – | – | – | – |
| COC(=O)C1C=CC(NC(=O)C2(C(F)(F)F)CC(c3cccc(Cl)c3)=NO2)C1 (mixture of isomers) [Example I-046] | 90 | 90 | 80 | 90 | 100 | 100 | 80 | 90 | 90 | 80 | 80 | – | – | – |
| CCOC(=O)C1C=CC(NC(=O)C2(C(F)(F)F)CC(c3cc(C)cc(C)c3)=NO2)C1 (mixture of isomers) [Example I-053] | 90 | 90 | 80 | 90 | 90 | – | 80 | – | – | – | – | 80 | – | – |
| CCOC(=O)C1C=CC(NC(=O)C2(C)CC(c3cc(F)cc(F)c3)=NO2)C1 (mixture of isomers) [Example I-059] | 90 | 100 | 90 | 90 | 100 | 90 | 80 | 100 | – | 90 | 80 | 80 | 80 | – |
| C=CC1(C(=O)NC2C=CC(C(=O)O)C2)CC(c2cc(F)cc(F)c2)=NO1 (stereo not shown) [Example I-011] | 90 | 90 | 80 | 90 | 90 | 80 | 80 | 90 | – | 80 | – | – | 80 | – |
| C=CC1(C(=O)N[C@H]2C=C[C@@H](C(=O)OCCOC)C2)CC(c2cc(F)cc(F)c2)=NO1 (stereo partly shown) [Example I-018] | – | 100 | 80 | 100 | 100 | 90 | 90 | 100 | 90 | 90 | 90 | – | 100 | – |
| Cc1cc(F)cc(C2=NOC(C(=O)N[C@H]3C=C[C@@H](C(=O)OCCCl)C3)(C(F)(F)F)C2)c1 (stereo partly shown) [Example I-031] | – | 90 | 80 | 90 | 100 | 90 | 80 | 80 | – | 90 | 90 | 80 | 90 | – |
| COCCOC(=O)C1C=CC(NC(=O)C2(C(F)(F)F)CC(c3cc(F)cc(C#N)c3)=NO2)C1 (stereo not shown) [Example I-100] | 90 | 100 | – | 100 | 90 | 90 | 90 | 90 | 80 | 80 | 80 | 80 | 90 | 80 |
| CCOC(=O)C1C=CC(NC(=O)C2(C#N)CC(c3cc(F)cc(F)c3)=NO2)C1 (stereo not shown) [Example I-104] | 80 | 80 | 80 | 90 | 90 | 90 | 80 | 80 | – | – | 80 | – | 90 | – |
| CCOC(=O)C1=CC[C@H](NC(=O)C2(C)CC(c3cc(F)cc(F)c3)=NO2)C1 (stereo partly shown) [III-07] | 90 | 90 | – | 90 | 90 | 80 | 90 | 90 | 80 | 90 | 90 | 80 | 80 | 90 |
| C=CC1(C(=O)N[C@H]2CC=C(C(=O)OC)C2)CC(c2cc(F)cc(F)c2)=NO1 (stereo partly shown) [III-08] | 90 | 100 | – | 90 | 90 | 100 | 90 | 90 | 80 | 90 | 80 | 80 | 80 | 80 |
| C=CC1(C(=O)N[C@H]2CC=C(C(=O)O)C2)CC(c2cc(F)cc(F)c2)=NO1 (stereo partly shown) [III-09] | 90 | 100 | – | 90 | 100 | 100 | 90 | 90 | 80 | 80 | 90 | 90 | 90 | 90 |
| C=CC1(C(=O)N[C@H]2CC=C(C(=O)OCC)C2)CC(c2cc(F)cc(F)c2)=NO1 (stereo partly shown) [III-17] | 90 | 90 | – | 100 | 90 | 90 | 90 | 80 | 80 | 80 | 90 | 90 | 80 | 80 |
